{
  "source": "patent US6761896B1",
  "about": "“Skin cosmetic care system and method” (Unilever Home & Personal Care USA, division of Conopco, Inc., priority 1998, dated 2004)",
  "test_system": "pig epidermal cells",
  "assay": "DNA synthesis (3H-thymidine) of pig skin organ cultures, epidermis",
  "assay_type": "cell-based",
  "settings": "for activity at 20 µM / activity at 200 µM / activity at 2000 µM: Sus scrofa, read-out: DNA synthesis AS % OF CONTROL",
  "protocol": "Freshly excised 2-3 week old piglet skins were obtained from Buckshire Farms, Pa. The pig skins were washed exhaustively first with soap and then with 10× antibiotic containing medium (penicillin, streptomycin). The pig skins were then dermatomed at 200 microns thickness. Seven (7) mm punch biopsies were made from these washed pig skins. The biopsies are then washed again with the 10× antibiotic medium and finally with normal DMEM (2 washes). Three (3) biopsies were incubated in each transwell plates, epidermal side up, with 1 ml of serum free DMEM fed from the bottom of the plates. Experiments were started 3 days after the biopsies were equilibrated under these conditions. Three (3) days after equilibrating the pig skin organ cultures prepared as described above, the medium was removed, 1 ml of fresh medium was added, and the wells were treated with different concentrations of lactic acid by adding from a 100 fold concentrated stock in water, directly into the medium. Simultaneous with the addition of lactic acid, selected cultures were also exposed to the South or North pole of a bar magnet or to the Bioflex magnet. The magnets were placed on top of the culture dish to expose the epidermis directly (the organ culture is carried out with the epidermis side on top). Three (3) days later, medium was changed, lactic acid was re-added, and 10 uCi ^3H-thymidine was added to each well. Plates were incubated for a further 24 hrs. At the end of the incubation period, biopsies were removed, washed in PBS for 1 hr with shaking, and incubated overnight in 10 ml of 2M sodium bromide with shaking to split the epidermis from the dermis. The biopsies were washed with PBS, and the epidermis was peeled off from dermis carefully using a scalpel. The epidermis and dermis were digested with 1 ml of 0.5N NaOH overnight at 50 C, 200 ul was used for counting the radioactivity. The DNA synthesis rate was calculated as cpm/7 mm punch biopsy for dermis or epidermis and in some experiments expressed also as % of controls. All organ culture experiments were conducted with at least 6 replicates, and the mean+/−standard deviation was calculated for statistical analysis using Students t-test.",
  "key": {"[1]": {"settings": "Example 5, 0.02 mM LA + South pole of bar magnet"}, "[2]": {"settings": "Example 5, 0.02 mM LA, no magnet"}, "[3]": {"settings": "Example 5, 0.2 mM LA + South pole of bar magnet"}, "[4]": {"settings": "Example 5, 0.2 mM LA, no magnet"}, "[5]": {"settings": "Example 5, 2.0 mM LA + South pole of bar magnet"}, "[6]": {"settings": "Example 5, 2.0 mM LA, no magnet"}, "[7]": {"settings": "Example 6, 0.2 mM LA + North pole"}, "[8]": {"settings": "Example 6, 0.2 mM LA + South pole"}, "[9]": {"settings": "Example 6, 0.2 mM LA, no magnet"}},
  "note": "Read-outs that look alike come from different tables or passages of the source.",
  "data": [
    {"molecule": "CC(O)C(=O)O", "note": "(stereo not drawn) [LA, lactic acid]", "values": [
      {"measurement": "DNA SYNTHESIS (CPM/BIOPSY) MEAN +/- STD", "setting": "[1]", "result": "7915 +/− 2807 CPM/BIOPSY"},
      {"measurement": "DNA SYNTHESIS (CPM/BIOPSY) MEAN +/- STD", "setting": "[2]", "result": "4670 +/− 497 CPM/BIOPSY"},
      {"measurement": "DNA SYNTHESIS (CPM/BIOPSY) MEAN +/- STD", "setting": "[3]", "result": "8402 +/− 512 CPM/BIOPSY"},
      {"measurement": "DNA SYNTHESIS (CPM/BIOPSY) MEAN +/- STD", "setting": "[4]", "result": "5030 +/− 958 CPM/BIOPSY"},
      {"measurement": "epidermal proliferation, % over control", "setting": "Example 5, 2 mM LA + South pole", "result": 165, "unit": "%"},
      {"measurement": "DNA SYNTHESIS (CPM/BIOPSY) MEAN +/- STD", "setting": "[5]", "result": "11523 +/− 2123 CPM/BIOPSY"},
      {"measurement": "synergy of LA and South pole on epidermal proliferation", "setting": "Example 5, 2 mM LA + South pole vs additive response", "result": "Synergies were observed"},
      {"measurement": "epidermal proliferation, % over control", "setting": "Example 5, 2 mM LA alone", "result": 43, "unit": "%"},
      {"measurement": "DNA SYNTHESIS (CPM/BIOPSY) MEAN +/- STD", "setting": "[6]", "result": "6216 +/− 1035 CPM/BIOPSY"},
      {"measurement": "effect on epidermal proliferation", "setting": "Example 5, 0.02 and 0.2 mM lactic acid, no magnet", "result": "no significant effect"},
      {"measurement": "DNA SYNTHESIS (CPM/BIOPSY) MEAN +/- STD", "setting": "[7]", "result": "69726 +/− 29913 CPM/BIOPSY"},
      {"measurement": "proliferative response, % over control", "setting": "[7]", "result": 112, "unit": "%"},
      {"measurement": "synergy of LA with North pole on epidermal proliferation", "setting": "Example 6, 0.2 mM LA + North pole vs north alone control", "result": "not synergistic"},
      {"measurement": "DNA SYNTHESIS (CPM/BIOPSY) MEAN +/- STD", "setting": "[8]", "result": "81393 +/− 11738 CPM/BIOPSY"},
      {"measurement": "proliferative response, % over control", "setting": "[8]", "result": 146, "unit": "%"},
      {"measurement": "synergy of LA with South pole on epidermal proliferation", "setting": "Example 6, 0.2 mM LA + South pole vs LA alone or South pole alone", "result": "synergistic"},
      {"measurement": "DNA SYNTHESIS (CPM/BIOPSY) MEAN +/- STD", "setting": "[9]", "result": "41076 +/− 24767 CPM/BIOPSY"},
      {"measurement": "effect on epidermal proliferation", "setting": "Example 6, 0.2 mM Lactic acid alone", "result": "no significant effect"},
      {"measurement": "activity at 20 µM", "setting": "[1]", "result": 182, "unit": "%"},
      {"measurement": "activity at 20 µM", "setting": "[2]", "result": 107, "unit": "%"},
      {"measurement": "activity at 200 µM", "setting": "[3]", "result": 193, "unit": "%"},
      {"measurement": "activity at 200 µM", "setting": "[4]", "result": 115, "unit": "%"},
      {"measurement": "activity at 2000 µM", "setting": "[5]", "result": 265, "unit": "%"},
      {"measurement": "activity at 2000 µM", "setting": "[6]", "result": 143, "unit": "%"},
      {"measurement": "activity at 200 µM", "setting": "[7]", "result": 211, "unit": "%"},
      {"measurement": "activity at 200 µM", "setting": "[8]", "result": 246, "unit": "%"},
      {"measurement": "activity at 200 µM", "setting": "[9]", "result": 124, "unit": "%"}
    ]}
  ]
}
